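Each compound was tested at five concentrations against cells in 96-well plates for 48 hours. TGI marks complete inhibition of growth.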
Tests used:
Assay in all cases: growth of human tumour cells (NCI), 48 h
DMS 273 small cell lung = test system: DMS 273 small cell lung
DLD-1 colon = test system: DLD-1 colon
KM20L2 colon = test system: KM20L2 colon
LXFL 529 NSCLC = test system: LXFL 529 NSCLC
SNB-78 CNS = test system: SNB-78 CNS
XF 498 CNS = test system: XF 498 CNS
M19-MEL melanoma = test system: M19-MEL melanoma

In the case of `CCC1CCc2c(c(=O)oc3c2cc(OC)c2cccc(OC)c23)C1` (configuration not stated), the TGI (DMS 273 small cell lung) is reported as > 100 µM, the TGI (DLD-1 colon) is reported as > 100 µM and the TGI (KM20L2 colon) is reported as > 100 µM. The TGI (LXFL 529 NSCLC) was > 100 µM, the TGI (SNB-78 CNS) was > 100 µM and the TGI (XF 498 CNS) was 78.6 µM. For the same compound, the TGI (M19-MEL melanoma) was > 100 µM.

Reference: PubChem BioAssay (NCI)
